Laboratory results: patent US7163946B2 (Ligand Pharmaceuticals Incorporated, priority 2002, dated 2007)

What was measured:
[1] = target: T1, hGR (Homo sapiens, UniProt P04150); test: hGR cotransfection assay (potency ratio to hPR); format: cell-based; conditions: receptor-selectivity potency ratio, cotransfection assays
T1 sequence (P04150 1-777): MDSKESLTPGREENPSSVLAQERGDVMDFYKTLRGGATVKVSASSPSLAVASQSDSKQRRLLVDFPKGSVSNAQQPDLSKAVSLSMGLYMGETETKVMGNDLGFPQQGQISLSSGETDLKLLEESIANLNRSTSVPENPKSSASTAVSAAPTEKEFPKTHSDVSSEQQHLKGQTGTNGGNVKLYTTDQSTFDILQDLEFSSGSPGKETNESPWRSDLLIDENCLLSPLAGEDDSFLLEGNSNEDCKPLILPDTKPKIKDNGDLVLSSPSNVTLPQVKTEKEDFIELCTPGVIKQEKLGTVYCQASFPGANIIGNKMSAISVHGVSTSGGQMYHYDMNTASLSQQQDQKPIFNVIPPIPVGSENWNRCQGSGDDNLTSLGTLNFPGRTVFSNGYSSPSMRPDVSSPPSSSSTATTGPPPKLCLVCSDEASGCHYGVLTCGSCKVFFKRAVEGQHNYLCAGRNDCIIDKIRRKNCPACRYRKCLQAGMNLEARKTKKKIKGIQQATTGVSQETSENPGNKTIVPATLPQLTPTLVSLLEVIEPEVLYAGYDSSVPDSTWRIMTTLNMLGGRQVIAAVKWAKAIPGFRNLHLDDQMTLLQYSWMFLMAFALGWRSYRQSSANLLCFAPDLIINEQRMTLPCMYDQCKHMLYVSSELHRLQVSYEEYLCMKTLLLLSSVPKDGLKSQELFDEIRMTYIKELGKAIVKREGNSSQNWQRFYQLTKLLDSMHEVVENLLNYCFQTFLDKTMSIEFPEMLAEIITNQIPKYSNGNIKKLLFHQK
Method: (§1) Antagonist efficacy was determined as a function (%) of maximal inhibition of a reference agonist at EC50 concentration. All the cotransfection experiments were carried out in 96-well plates by automation (Beckman Biomomek automated workstation).

[2] = target: T2, hPR-A (Homo sapiens, UniProt P06401); test: Receptor competitive binding assay; conditions: read-out: PR binding Ki
T2 sequence (P06401 1-769 isoform P06401-2): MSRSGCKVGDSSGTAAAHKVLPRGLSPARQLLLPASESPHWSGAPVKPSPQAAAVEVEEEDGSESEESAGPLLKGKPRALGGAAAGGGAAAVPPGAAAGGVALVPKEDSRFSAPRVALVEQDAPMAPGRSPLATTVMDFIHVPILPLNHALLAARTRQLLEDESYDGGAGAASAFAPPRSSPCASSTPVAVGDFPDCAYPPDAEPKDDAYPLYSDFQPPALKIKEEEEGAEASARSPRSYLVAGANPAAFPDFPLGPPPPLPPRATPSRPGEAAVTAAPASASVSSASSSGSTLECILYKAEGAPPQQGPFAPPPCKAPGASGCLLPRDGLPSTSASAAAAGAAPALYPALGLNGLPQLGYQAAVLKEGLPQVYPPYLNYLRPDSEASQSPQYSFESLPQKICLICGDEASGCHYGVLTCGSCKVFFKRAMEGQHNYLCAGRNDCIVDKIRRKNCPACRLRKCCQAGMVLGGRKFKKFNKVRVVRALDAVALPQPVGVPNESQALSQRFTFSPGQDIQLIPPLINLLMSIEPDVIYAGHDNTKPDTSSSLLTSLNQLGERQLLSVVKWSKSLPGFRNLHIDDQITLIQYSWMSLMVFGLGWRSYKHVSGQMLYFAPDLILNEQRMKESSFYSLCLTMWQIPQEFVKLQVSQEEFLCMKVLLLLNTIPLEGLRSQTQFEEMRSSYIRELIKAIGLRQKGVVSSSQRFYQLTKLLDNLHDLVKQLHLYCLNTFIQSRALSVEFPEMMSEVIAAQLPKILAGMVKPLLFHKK

[3] = target: T3, hPR (Homo sapiens, UniProt P06401); test: T47D alkaline phosphatase assay, antagonist mode; format: cell-based; conditions: T47D human breast cancer cells; for Emax: read-out: hPR Antagonists T47D Cells Eff. (%); for IC50: read-out: hPR Antagonists T47D Cells IC50
T3 sequence (P06401 679-933 limits assumed): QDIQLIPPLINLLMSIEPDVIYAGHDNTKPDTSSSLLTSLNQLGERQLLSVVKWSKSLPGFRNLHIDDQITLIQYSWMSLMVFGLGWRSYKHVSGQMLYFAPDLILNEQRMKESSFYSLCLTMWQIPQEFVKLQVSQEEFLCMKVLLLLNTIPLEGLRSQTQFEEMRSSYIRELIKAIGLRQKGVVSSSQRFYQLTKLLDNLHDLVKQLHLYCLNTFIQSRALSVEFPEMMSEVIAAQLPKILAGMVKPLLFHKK
From the text: The potential tissue-selectivities of the selected analogues were examined by using the T47D alkaline phosphatase assay that was developed from human breast cancer cells with endogenous PRs.

[4] = target: T4, human estrogen receptor (hER) (Homo sapiens, UniProt P03372); test: hER cotransfection assay (potency ratio to hPR); format: cell-based; conditions: receptor-selectivity potency ratio, cotransfection assays
T4 sequence (P03372 1-595): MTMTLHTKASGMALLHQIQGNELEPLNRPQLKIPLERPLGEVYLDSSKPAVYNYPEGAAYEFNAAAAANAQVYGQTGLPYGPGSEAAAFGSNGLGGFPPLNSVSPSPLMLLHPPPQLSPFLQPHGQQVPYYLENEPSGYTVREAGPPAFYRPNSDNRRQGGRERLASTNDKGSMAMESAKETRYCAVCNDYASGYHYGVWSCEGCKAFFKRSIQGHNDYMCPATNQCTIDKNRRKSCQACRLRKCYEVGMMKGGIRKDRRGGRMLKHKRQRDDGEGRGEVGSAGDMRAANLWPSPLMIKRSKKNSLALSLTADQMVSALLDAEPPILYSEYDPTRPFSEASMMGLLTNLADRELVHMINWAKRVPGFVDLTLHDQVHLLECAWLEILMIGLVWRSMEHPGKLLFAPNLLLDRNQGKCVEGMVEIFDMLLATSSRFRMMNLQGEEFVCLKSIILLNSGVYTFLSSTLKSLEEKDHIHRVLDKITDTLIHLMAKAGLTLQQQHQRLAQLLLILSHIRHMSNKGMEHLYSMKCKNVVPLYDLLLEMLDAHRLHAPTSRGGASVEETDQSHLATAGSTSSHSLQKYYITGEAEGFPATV
Method: as §1

Compound | hGR EC50 or IC50/hPR EC50 [1] | Ki [2] [nM] | Emax [3] [%] | IC50 [3] [nM] | hER EC50 or IC50/hPR EC50 [4]
CC1=CC(C)(C)Nc2ccc3c(c21)/C(=C/c1ccsc1)Oc1c(F)cc(F)cc1-3 [Compound 30, 7,9-difluoro-5(Z)-(3-thienylmethylidene)-1,2-dihydro-2,2,4-trimethyl-5H-chromeno[3,4-f]quinoline] | 19 | 4.5 | 44 | 840 | >1000
CC1=CC(C)(C)Nc2ccc3c(c21)/C(=C/c1cccs1)Oc1c(F)cc(F)cc1-3 [Compound 31, 7,9-difluoro-5(Z)-(2-thienylmethylidene)-1,2-dihydro-2,2,4-trimethyl-5H-chromeno[3,4-f]quinoline] | 59 | 7.9 | 39 | 610 | >1000
